# According to publication PMC3388080 (PLoS ONE, 2012):
# How the values were obtained:
# Type in all cases: in vivo, rat
# male Sprague-Dawley rats [1] = test: Rodent EEG studies, all three studies together
# Experimental: (§1) All rodent electroencephalograph (EEG) studies were performed at SRI International. Three groups of eight male Sprague-Dawley rats (300±25 g; Charles River, Wilmington, MA) were implanted with chronic recording devices (F40-EET, Data Sciences Inc., St Paul, MN) for continuous recordings of EEG, electromyograph (EMG), core body temperature (Tcore), and LMA via telemetry as previously described. Data recording and scoring were performed as previously reported (see also Supplemental Material and Methods). The EEG and EMG data were scored in 10 sec epochs for waking (W), rapid eye movement sleep (REM), and non-REM sleep (NR). Tcore and LMA (counts per minute) were analyzed as hourly means. Data from the EEG studies are reported in hourly means such that the hourly time ZT1 refers to the hour between time points ZT0 and ZT1.
# (§2) For each of the three separate studies, a repeated measures counter-balanced design was employed in which each rat received five separate dosings. […] All dosings were administered ip in a volume of 2 ml/kg. A minimum of 3 d elapsed between doses. Dosing occurred during the middle of the rats’ normal active period at the start of ZT19 and was typically completed within 10 min. Animals were continuously recorded for 6 h prior to dosing and for 18 h following dosing.
# male Sprague-Dawley rats [2] = test: EEG/EMG/Tcore/LMA telemetry sleep study 1 (SB-334867 vs ZOL); details: 7.5 mg/kg ip
# Experimental: as §1, §2
# male Sprague-Dawley rats [3] = test: EEG/EMG/Tcore/LMA telemetry sleep study 2 (EMPA vs ZOL); details: ZOL 10 mg/kg ip
# Experimental: as §1, §2
# male Sprague-Dawley rats [4] = test: EEG/EMG/Tcore/LMA telemetry sleep study 3 (almorexant vs ZOL); details: ZOL 10 mg/kg ip
# Experimental: as §1, §2
smiles,measurement,setting,value
"Cc1ccc(-c2nc3ccc(C)cn3c2CC(=O)N(C)C)cc1 [ZOL, N,N,6-Trimehtyl-2-(methylphenyl)-imidazol[1,2-a]pyridine-3-acetamide]",NR latency (in words),"male Sprague-Dawley rats [1]; ZOL 7.5 or 10 mg/kg ip, all three experiments",decrease in NR latency
same,cumulative NR (in words),male Sprague-Dawley rats [1]; all three experiments,increased cumulative NR
same,cumulative REM (in words),male Sprague-Dawley rats [1]; all three experiments,decreased cumulative REM
same,Tcore (in words),"male Sprague-Dawley rats [1]; all three studies, followed by rebound increase in the light period",largest declines in Tcore
same,EEG delta power during NR (in words),male Sprague-Dawley rats [1]; compared to vehicle control,significant effects on EEG delta power during NR
same,NR bout duration,male Sprague-Dawley rats [2]; 6 h Average,1.63 ± 0.07
same,REM bout duration,male Sprague-Dawley rats [2]; 6 h Average,0.99 ± 0.09
same,W bout duration,male Sprague-Dawley rats [2]; 6 h Average,4.50 ± 0.41
same,Number of NR bouts,male Sprague-Dawley rats [2]; 6 h Total,62.88 ± 3.98
same,Number of REM bouts,male Sprague-Dawley rats [2]; 6 h Total,13.13 ± 1.32
same,Number of W bouts,male Sprague-Dawley rats [2]; 6 h Total,56.0 ± 4.43
same,NR bout duration,male Sprague-Dawley rats [2]; ZT19,3.33 ± 0.78
same,Number of NR bouts,male Sprague-Dawley rats [2]; ZT19,7.50 ± 1.43
same,Number of REM bouts,male Sprague-Dawley rats [2]; ZT19,1.38 ± 0.46
same,Number of W bouts,male Sprague-Dawley rats [2]; ZT19,6.75 ± 1.31
same,REM bout duration,male Sprague-Dawley rats [2]; ZT19,0.77 ± 0.20
same,NR bout duration,male Sprague-Dawley rats [2]; ZT20,2.95 ± 0.43
same,Number of NR bouts,male Sprague-Dawley rats [2]; ZT20,7.75 ± 1.29
same,Number of REM bouts,male Sprague-Dawley rats [2]; ZT20,0.88 ± 0.48
same,Number of W bouts,male Sprague-Dawley rats [2]; ZT20,6.00 ± 0.82
same,REM bout duration,male Sprague-Dawley rats [2]; ZT20,0.76 ± 0.19
same,NR bout duration,male Sprague-Dawley rats [2]; ZT21,1.87 ± 0.20
same,Number of NR bouts,male Sprague-Dawley rats [2]; ZT21,17.25 ± 2.00
same,Number of REM bouts,male Sprague-Dawley rats [2]; ZT21,4.50 ± 0.78
same,Number of W bouts,male Sprague-Dawley rats [2]; ZT21,12.00 ± 1.95
same,REM bout duration,male Sprague-Dawley rats [2]; ZT21,1.28 ± 0.11
same,W bout duration,male Sprague-Dawley rats [2]; ZT21,2.44 ± 0.75
same,NR bout duration,male Sprague-Dawley rats [2]; ZT22,1.01 ± 0.10
same,Number of NR bouts,male Sprague-Dawley rats [2]; ZT22,14.88 ± 1.88
same,Number of REM bouts,male Sprague-Dawley rats [2]; ZT22,1.25 ± 0.75
same,Number of W bouts,male Sprague-Dawley rats [2]; ZT22,14.75 ± 2.49
same,W bout duration,male Sprague-Dawley rats [2]; ZT22,3.30 ± 0.66
same,NR bout duration,male Sprague-Dawley rats [2]; ZT23,0.82 ± 0.10
same,Number of NR bouts,male Sprague-Dawley rats [2]; ZT23,7.25 ± 1.06
same,Number of REM bouts,male Sprague-Dawley rats [2]; ZT23,1.00 ± 0.38
same,Number of W bouts,male Sprague-Dawley rats [2]; ZT23,7.75 ± 1.19
same,REM bout duration,male Sprague-Dawley rats [2]; ZT23,0.72 ± 0.26
same,NR bout duration,male Sprague-Dawley rats [2]; ZT24,0.84 ± 0.09
same,Number of NR bouts,male Sprague-Dawley rats [2]; ZT24,8.25 ± 1.75
same,Number of W bouts,male Sprague-Dawley rats [2]; ZT24,7.88 ± 1.63
same,REM bout duration,male Sprague-Dawley rats [2]; ZT24,0.86 ± 0.24
same,W bout duration,male Sprague-Dawley rats [2]; ZT24,12.51 ± 0.82
same,NR bout duration,male Sprague-Dawley rats [3]; 6 h Average,1.80 ± 0.13
same,REM bout duration,male Sprague-Dawley rats [3]; 6 h Average,0.88 ± 0.07
same,W bout duration,male Sprague-Dawley rats [3]; 6 h Average,3.94 ± 0.29
same,Number of NR bouts,male Sprague-Dawley rats [3]; 6 h Total,73.70 ± 4.34
same,Number of REM bouts,male Sprague-Dawley rats [3]; 6 h Total,12.10 ± 1.30
same,Number of W bouts,male Sprague-Dawley rats [3]; 6 h Total,55.80 ± 3.84
same,NR bout duration,male Sprague-Dawley rats [3]; ZT19,3.89± 0.68
same,Number of NR bouts,male Sprague-Dawley rats [3]; ZT19,8.90 ± 1.06
same,Number of REM bouts,male Sprague-Dawley rats [3]; ZT19,0.60± 0.31
same,Number of W bouts,male Sprague-Dawley rats [3]; ZT19,8.10± 0.97
same,REM bout duration,male Sprague-Dawley rats [3]; ZT19,0.65± 0.16
same,W bout duration,male Sprague-Dawley rats [3]; ZT19,3.64± 0.51
same,NR bout duration,male Sprague-Dawley rats [3]; ZT20,3.13± 0.44
same,Number of NR bouts,male Sprague-Dawley rats [3]; ZT20,11.60± 1.38
same,Number of REM bouts,male Sprague-Dawley rats [3]; ZT20,1.10± 0.48
same,Number of W bouts,male Sprague-Dawley rats [3]; ZT20,8.60± 1.59
same,REM bout duration,male Sprague-Dawley rats [3]; ZT20,0.96± 0.27
same,W bout duration,male Sprague-Dawley rats [3]; ZT20,3.23± .037
same,NR bout duration,male Sprague-Dawley rats [3]; ZT21,1.81± 0.27
same,Number of NR bouts,male Sprague-Dawley rats [3]; ZT21,16.40± 2.10
same,Number of REM bouts,male Sprague-Dawley rats [3]; ZT21,3.30± 0.75
same,Number of W bouts,male Sprague-Dawley rats [3]; ZT21,11.00± 1.74
same,REM bout duration,male Sprague-Dawley rats [3]; ZT21,0.66± 0.09
same,W bout duration,male Sprague-Dawley rats [3]; ZT21,3.10± .059
same,NR bout duration,male Sprague-Dawley rats [3]; ZT22,1.34± 0.17
same,Number of NR bouts,male Sprague-Dawley rats [3]; ZT22,16.10± 1.11
same,Number of REM bouts,male Sprague-Dawley rats [3]; ZT22,4.80± 0.55
same,Number of W bouts,male Sprague-Dawley rats [3]; ZT22,12.10± 0.85
same,REM bout duration,male Sprague-Dawley rats [3]; ZT22,0.97± 0.10
same,W bout duration,male Sprague-Dawley rats [3]; ZT22,2.59± 0.31
same,NR bout duration,male Sprague-Dawley rats [3]; ZT23,0.98± 0.11
same,Number of NR bouts,male Sprague-Dawley rats [3]; ZT23,13.00± 1.64
same,Number of REM bouts,male Sprague-Dawley rats [3]; ZT23,1.90± 0.35
same,Number of W bouts,male Sprague-Dawley rats [3]; ZT23,8.90± 1.15
same,W bout duration,male Sprague-Dawley rats [3]; ZT23,5.59 ±0.93
same,NR bout duration,male Sprague-Dawley rats [3]; ZT24,0.92± 0.20
same,Number of NR bouts,male Sprague-Dawley rats [3]; ZT24,7.50± 1.58
same,Number of REM bouts,male Sprague-Dawley rats [3]; ZT24,0.40± 0.22
same,Number of W bouts,male Sprague-Dawley rats [3]; ZT24,6.20± 1.31
same,REM bout duration,male Sprague-Dawley rats [3]; ZT24,0.58± 0.14
same,W bout duration,male Sprague-Dawley rats [3]; ZT24,12.90± 3.56
same,NR bout duration,male Sprague-Dawley rats [4]; 6 h Average,1.99 ± 0.16
same,REM bout duration,male Sprague-Dawley rats [4]; 6 h Average,0.97 ± 0.12
same,W bout duration,male Sprague-Dawley rats [4]; 6 h Average,2.88 ± 0.16
same,Number of NR bouts,male Sprague-Dawley rats [4]; 6 h Total,77.63 ± 3.56
same,Number of REM bouts,male Sprague-Dawley rats [4]; 6 h Total,7.38 ± 1.68
same,Number of W bouts,male Sprague-Dawley rats [4]; 6 h Total,68.00 ± 4.23
same,NR bout duration,male Sprague-Dawley rats [4]; ZT19,3.53 ± 0.71
same,Number of REM bouts,male Sprague-Dawley rats [4]; ZT19,0.50 ± 0.27
same,Number of W bouts,male Sprague-Dawley rats [4]; ZT19,8.75 ± 1.56
same,REM bout duration,male Sprague-Dawley rats [4]; ZT19,0.33 ± 0.10
same,W bout duration,male Sprague-Dawley rats [4]; ZT19,4.15 ± 0.82
same,NR bout duration,male Sprague-Dawley rats [4]; ZT20,2.90 ± 0.19
same,Number of NR bouts,male Sprague-Dawley rats [4]; ZT20,11.63 ± 1.36
same,Number of REM bouts,male Sprague-Dawley rats [4]; ZT20,0.50 ± 0.38
same,Number of W bouts,male Sprague-Dawley rats [4]; ZT20,10.00 ± 0.71
same,REM bout duration,male Sprague-Dawley rats [4]; ZT20,2.25 ± 0.25
same,W bout duration,male Sprague-Dawley rats [4]; ZT20,2.31 ± 0.33
same,NR bout duration,male Sprague-Dawley rats [4]; ZT21,2.84 ± 0.34
same,Number of NR bouts,male Sprague-Dawley rats [4]; ZT21,11.88 ± 1.60
same,Number of W bouts,male Sprague-Dawley rats [4]; ZT21,10.25 ± 1.56
same,W bout duration,male Sprague-Dawley rats [4]; ZT21,2.69 ± 0.42
same,NR bout duration,male Sprague-Dawley rats [4]; ZT22,2.27 ± 0.44
same,Number of NR bouts,male Sprague-Dawley rats [4]; ZT22,13.50 ± 1.88
same,Number of REM bouts,male Sprague-Dawley rats [4]; ZT22,2.50 ± 0.82
same,Number of W bouts,male Sprague-Dawley rats [4]; ZT22,10.50 ± 1.21
same,W bout duration,male Sprague-Dawley rats [4]; ZT22,3.13 ± 0.59
same,NR bout duration,male Sprague-Dawley rats [4]; ZT23,1.29 ± 0.20
same,Number of NR bouts,male Sprague-Dawley rats [4]; ZT23,17.25 ± 3.27
same,Number of REM bouts,male Sprague-Dawley rats [4]; ZT23,1.75 ± 0.41
same,Number of W bouts,male Sprague-Dawley rats [4]; ZT23,15.13 ± 3.17
same,W bout duration,male Sprague-Dawley rats [4]; ZT23,3.85 ± 1.44
same,NR bout duration,male Sprague-Dawley rats [4]; ZT24,1.03 ± 0.12
same,Number of NR bouts,male Sprague-Dawley rats [4]; ZT24,13.13 ± 2.37
same,Number of REM bouts,male Sprague-Dawley rats [4]; ZT24,1.00 ± 0.42
same,Number of W bouts,male Sprague-Dawley rats [4]; ZT24,12.63 ± 2.40
same,REM bout duration,male Sprague-Dawley rats [4]; ZT24,0.66 ± 0.29
same,W bout duration,male Sprague-Dawley rats [4]; ZT24,4.15 ± 0.83
